26 compounds from patent US6680311B1, “Cryptophycin compounds” (Eli Lilly and Company, priority 1996, dated 2004) can be followed below.

Values after ≈ are worked out from the molar mass of the structure shown. Where a name gives a salt, the structure may show the parent alone. Read-outs that look alike come from different tables or passages of the source. Some results are limits rather than exact numbers.

In data set [1] the test system is GC3 human colon carcinoma cells. Briefly: GC3 human colon carcinoma screen (MTT). It counts as cell-based. As to the method: Selected wells of a 96 well plate were seeded with GC3 human colon carcinoma cells ([…] cells in 100 μl assay medium/well) twenty four hours prior to test compound addition. Cell free assay medium was added to other select wells of the 96 well plate.
The test compound was stored in an amber bottle prior to testing. Fresh dimethylsulfoxide stock solution (200 μg/ml) was prepared immediately prior to preparation of test sample dilutions in phosphate-buffered saline (PBS). A dilution of 1:20 dimethylsulfoxide solution in PBS was prepared such that the final concentration was 10 ug/ml. Serial 1:3 dilutions using PBS (0.5 ml previous sample of 1 ml PBS) were prepared.
A 10 ul sample of each dilution of test compound was added in triplicate to wells of GC3 plates. The plates were incubated for 72 hours at about 37° C. A 10 μl sample of stock 3-[4,5-[…]]-2,5-diphenyltetrazolium bromide salt (“MTT” 5 mg/ml in PBS) was added to each well. The plates were incubated for about an hour at 37°. The plates were centrifuged, media was decanted from the wells and 100 μl acid-isopropanol (0.04 N HCl in isopropanol) was added to each well. The plate was read within one hour using a test wavelength of 570 nm (SpectraMax reader).

Data set [2] has as its system Aortic smooth muscle (A-10) cells. Briefly: Effects on the cytoskeleton (immunofluorescence). It counts as cell-based, rat. The note with it: 2 μM, 24 hours. As to the method: (§1) A-10 cells are grown to near-confluency on glass coverslips in BME/10% FBS. Compounds in PBS are added to the indicated final concentrations and cells are incubated for an additional 24 hours. For the staining of microtubules and intermediate filaments, the cells are fixed with cold methanol and incubated with PBS containing 10% calf serum to block nonspecific binding sites. Cells are then incubated at 37° C. for 60 min. With either monoclonal anti-β-tubulin or with monoclonal anti-vimentin at dilutions recommended by the manufacturer. Bound primary antibodies are subsequently visualized by a 45 minute incubation with fluorescein-conjugated rabbit antimouse IgG. The coverslips are mounted on microscope slides and the fluorescence patterns are examined and photographed using a Zeiss Photomicroscope Ill equipped with epifluorescence optics for fluorescein. […] PBS containing 100 nM TRITC-phalloidin is then added and the mixture is allowed to incubate for 45 min. At 37° C. The cells are washed rapidly with PBS before the coverslips are mounted and immediately photographed as described above.
After 24 hours, microtubules and vimentin intermediate filaments are visualized by indirect immunofluorescence and microfilaments are stained using TRITC-phalloidin. The morphological effects of each drug is examined. […]

Another data set relates to SKVLB1 cells. Briefly: Toxicity toward SKVLB1 cells (growth inhibition). It counts as cell-based. The settings on record: Homo sapiens, inhibition of proliferation, P-glycoprotein over expressing, vinblastine-resistant sub-line.
Data set [3] relates to A-10 cells. The data set can be described thus: Effects on taxol-stabilized microtubules. It counts as cell-based, rat. The method, then: as §1
A-10 cells are treated for 3 hours with 0 or 10 μM taxol before the addition of PBS, 100 nM vinbiastine or 10 nM cryptophycin compound. After 24 hours, microtubule organization is examined by immunofluorescence as described above. […] Similarly, microtubules pretreated with taxol are observed with cryptophycin treatment.

The subject of data set [4] is A-10 cells. Briefly: Reversibility of microtubule depolymerization. It counts as cell-based, rat. As to the method: as §1
The cells are then washed and incubated in drug-free medium for periods of 1 hour or 24 hours. […] Cells are visualized for microtubule state after treatment with a cryptophycin compound of this invention at either 1 hour or 24 hours after removal of the cryptophycin compounds.

Data set [5] in a line: Solubility in excipient / parenteral vehicles. It counts as physicochemical. The settings on record: Comparative solubility.
[6] abbreviates: in vitro cytotoxicity, Gc3 tumor cell model, read-out: Gc3 IC50.
Where [7] appears, read: Homo sapiens, Colon carcinoma cell, 72 h, read-out: IC50 (GC3 assay).
The mark [8] stands for this setting: Homo sapiens, Colon carcinoma cell, 72 h, read-out: GC3 IC50.

What is called IC50 is the concentration needed to halve the response being measured. “Cryptophycin 55 γ-Aminobutyrate Hydrochloride Salt [25′]”: in data set [1] (setting [6]), the IC50 stood at 230 nM. On to `COc1ccc(CC2NC(=O)C=CCC(C(C)C(OC(=O)[C@H](N)Cc3ccc(OC)c(Cl)c3)C(Cl)c3ccccc3)OC(=O)C(CC(C)C)OC(=O)C(C)(C)CNC2=O)cc1Cl` (some centres unmarked) [11′, Cryptophycin 55 3-(3-Chloro-4-methoxyphenyl)-(D)-alaninate Hydrochloride Salt], for which the IC50 in data set [1] (setting [6]) is 6.8 nM. Regarding `COc1ccc(C[C@H]2NC(=O)/C=C/C[C@@H]([C@H](C)[C@@H](Br)C(=O)c3ccccc3)OC(=O)[C@H](CC(C)C)OC(=O)[C@H](C)CNC2=O)cc1Cl` [CRYPTOPHYCIN-139, Cryptophycin-139], the IC50 in data set [1] (setting [7]) was determined as 3.4 nM. On the same count and under the same terms, as for `COc1ccc(C[C@H]2NC(=O)/C=C/C[C@@H]([C@H](C)[C@@H](Br)[C@H](O)c3ccccc3)OC(=O)[C@H](CC(C)C)OC(=O)[C@H](C)CNC2=O)cc1Cl` [CRYPTOPHYCIN-138, Cryptophycin-138], the figure is 30.8 nM.

As to `C=C1[C@@H](C)[C@H]2[C@H](Cc3ccccc3)NC(=O)[C@]23OC(=O)/C=C/[C@H](O)CCC[C@@H](C)C/C=C/[C@H]3[C@@H]1O` [Cytochalasin B, cytochalasin B], the effect on microfilaments entry in data set [2] (TRITC-phalloidin staining) was “complete depolymerization of microfilaments”. Moreover, in data set [2] (indirect immunofluorescence), the “effect on distribution of microtubules or intermediate filaments” value is “did not affect”.

On to `COc1ccc(C[C@H]2NC(=O)/C=C/C[C@@H]([C@H](C)[C@@H](OC(C)=O)[C@@H](Cl)c3ccccc3)OC(=O)[C@H](CC(C)C)OC(=O)C(C)(C)CNC2=O)cc1Cl` [Compound 3, Cryptophycin 55 Acetate], for which the IC50 in data set [1] (setting [8]) amounted to 83 nM.

For the compound `COc1ccc(CC2NC(=O)C=CCC(C(C)C(OC(=O)[C@@H](N)Cc3ccccc3)C(Cl)c3ccccc3)OC(=O)C(CC(C)C)OC(=O)C(C)(C)CNC2=O)cc1Cl` (some centres unmarked) [13′, Cryptophycin 55 (L)-Phenylalaninate Hydrochloride Salt], the IC50 in data set [1] (setting [6]) was found to be 7 nM. As to `COc1ccc(C[C@H]2NC(=O)/C=C/C[C@@H]([C@H](C)[C@@H](Cl)[C@@H](O)c3ccccc3)OC(=O)[C@H](CC(C)C)OC(=O)[C@H](C)CNC2=O)cc1Cl` [CRYPTOPHYCIN-140, Cryptophycin-140], the IC50 in data set [1] (setting [7]) stood at 863 nM. Consider `CC[C@]1(O)C[C@@H]2CN(CCc3c([nH]c4ccccc34)[C@@](C(=O)OC)(c3cc4c(cc3OC)N(C)[C@H]3[C@@](O)(C(=O)OC)[C@H](OC(C)=O)[C@]5(CC)C=CCN6CC[C@]43[C@@H]65)C2)C1` [Vinblastine, vinblastine], for which the IC50 with SKVLB1 cells came to 4200 nM. Further, the “microtubule depolymerization after taxol pretreatment” value in the data set with A-10 cells [3] (100 nM vinblastine after 3 hours pretreatment with 10 μM taxol) is listed as “prevented microtubule depolymerization”. Also, the microtubule depolymerization entry with A-10 cells [3] (100 nM, 24 hours, non-pretreated cells) is given as “complete depolymerization of microtubules”; in the data set on A-10 cells [4] (100 nM, 24 hr), “complete microtubule depolymerization”. For the same compound, the “microtubule repolymerization 1 hour after removal of drug” value in the data set on A-10 cells [4] (100 nM for 24 hr, washed, drug-free medium 1 hour) is listed as “significant levels of microtubules”. For the same compound, in the data set with A-10 cells [4] (100 nM for 24 hr, washed, drug-free medium 24 hours), the “microtubule repolymerization 24 hours after removal of drug” value was “complete morphological recovery”. As for `COc1ccc(CC2NC(=O)C=CCC(C(C)C(OC(=O)C3CCCN3)C(Cl)c3ccccc3)OC(=O)C(CC(C)C)OC(=O)C(C)(C)CNC2=O)cc1Cl` (centres unmarked) [17′, Cryptophycin 55 (L)-Prolinate Hydrochloride Salt], in data set [1] (setting [6]), the IC50 stood at 3.6 nM. Cryptophycin 55 Acetate [3′]: the IC50 in data set [1] (setting [6]) was found to be 83 nM.

As to `COc1ccc(C[C@H]2NC(=O)/C=C/C[C@@H]([C@H](C)[C@H](Cl)[C@H](O)c3ccccc3)OC(=O)[C@H](CC(C)C)OC(=O)[C@H](C)CNC2=O)cc1Cl` [CRYPTOPHYCIN-142], in data set [1] (setting [7]), the IC50 was 1.1 nM. The solubility is how much of the substance goes into solution per volume. In the case of `COc1ccc(C[C@H]2NC(=O)/C=C/C[C@@H]([C@H](C)[C@@H](O)[C@@H](Cl)c3ccccc3)OC(=O)[C@H](CC(C)C)OC(=O)C(C)(C)CNC2=O)cc1Cl` [Compound 1, cryptophycin 55], the IC50 in data set [1] (Homo sapiens, Colon carcinoma cell, in vitro cytotoxicity, 72 hours, MTT, read-out: GC3 IC50) was determined as 0.065 nM. Besides, the solubility is less than 1 µg/mL in data set [5] (aqueous with cosolvent or surfactant or cyclodextrin, vehicle 1); 2.6 µg/mL (≈ 3.68 µM) in data set [5] (aqueous with cosolvent or surfactant or cyclodextrin, vehicle 2); 311 µg/mL (≈ 441 µM) in data set [5] (aqueous with cosolvent or surfactant or cyclodextrin, vehicle 3); 361 µg/mL (≈ 512 µM) in data set [5] (aqueous with cosolvent or surfactant or cyclodextrin, vehicle 4); less than 1 µg/mL in data set [5] (pH 4, aqueous buffer, vehicle 5). Turning to `COc1ccc(C[C@H]2NC(=O)/C=C/C[C@@H]([C@H](C)[C@H](Br)[C@H](O)c3ccccc3)OC(=O)[C@H](CC(C)C)OC(=O)[C@H](C)CNC2=O)cc1Cl` [CRYPTOPHYCIN-145, Cryptophycin-145], in data set [1] (setting [7]), the IC50 was determined as 0.015 nM. With “Cryptophycin 55 (D)-alaninate Hydrochloride Salt [30′]”, in data set [1] (setting [6]), the IC50 amounted to 30 nM. Still for that read-out and setting: the figure for `COc1ccc(CC2NC(=O)C=CCC(C(C)C(OC(=O)CCC(=O)O)C(Cl)c3ccccc3)OC(=O)C(CC(C)C)OC(=O)C(C)(C)CNC2=O)cc1Cl` (centres unmarked) [5′, Cryptophycin 55 Succinate] is 31 nM. For the compound “Cryptophycin 55 (2′-phosphatyl)phenylacetate di-sodium Salt [7′]”, in data set [1] (setting [6]), the IC50 is 3.7 nM. Same read-out and setting: the figure for `COc1ccc(CC2NC(=O)C=CCC(C(C)C(OC(=O)CN)C(Cl)c3ccccc3)OC(=O)C(CC(C)C)OC(=O)C(C)(C)CNC2=O)cc1Cl` (centres unmarked) [19′, Cryptophycin 55 Glycinate Hydrochloride Salt] is 0.1 nM; for `COc1ccc(C[C@H]2NC(=O)/C=C/C[C@@H]([C@H](C)[C@@H](O)[C@@H](Cl)c3ccccc3)OC(=O)[C@H](CC(C)C)OC(=O)C(C)(C)CNC2=O)cc1Cl` [1′, Cryptophycin 55] it is 0.065 nM. Same read-out and setting: the figure for `COc1ccc(CC2NC(=O)C=CCC(C(C)C(OC(=O)[C@@H](N)Cc3c[nH]cn3)C(Cl)c3ccccc3)OC(=O)C(CC(C)C)OC(=O)C(C)(C)CNC2=O)cc1Cl` (some centres unmarked) [15′, Cryptophycin 55 (L)-Histidinate Dihydrochloride Salt] is 60 nM. Turning to `CC(=O)O[C@H]1C(=O)[C@@]2(C)[C@H]([C@H](OC(=O)c3ccccc3)[C@]3(O)C[C@H](OC(=O)[C@H](O)[C@@H](NC(=O)c4ccccc4)c4ccccc4)C(C)=C1C3(C)C)[C@]1(OC(C)=O)CO[C@@H]1C[C@@H]2O` [Taxol, taxol], in the data set with SKVLB1 cells, the midpoint of inhibition, the IC50, lay at 8000 nM. Also, the “microtubule organization in taxol-treated cells” value in the data set on A-10 cells [3] (10 μM taxol, compared with control cells) is “extensively bundled”. On to `COc1ccc(C[C@H]2NC(=O)/C=C/C[C@@H]([C@H](C)[C@H](Cl)[C@@H](O)c3ccccc3)OC(=O)[C@H](CC(C)C)OC(=O)[C@H](C)CNC2=O)cc1Cl` [CRYPTOPHYCIN-143], for which, in data set [1] (setting [7]), the IC50 amounted to 850 nM. As to `COc1ccc(C[C@H]2NC(=O)/C=C/C[C@@H]([C@H](C)[C@@H](OC(=O)Cc3ccccc3OP(=O)(O)O)[C@@H](Cl)c3ccccc3)OC(=O)[C@H](CC(C)C)OC(=O)C(C)(C)CNC2=O)cc1Cl` [Compound 6, Cryptophycin 55 (2′-Phosphatyl)phenylacetate di-Sodium Salt], the IC50 in data set [1] (setting [8]) was found to be 3.7 nM.

Turning to “Cryptophycin 55 β-Alaninate Hydrochloride Salt [21′]”, the IC50 in data set [1] (setting [6]) was determined as 21 nM. With `COc1ccc(C[C@H]2NC(=O)/C=C/C[C@@H]([C@H](C)[C@@H](Cl)[C@H](O)c3ccccc3)OC(=O)[C@H](CC(C)C)OC(=O)[C@H](C)CNC2=O)cc1Cl` [CRYPTOPHYCIN-141, Cryptophycin-141], the IC50 in data set [1] (setting [7]) was 795 nM. As for `COc1ccc(C[C@H]2NC(=O)/C=C/C[C@@H]([C@H](C)[C@@H](OC(=O)CCC(=O)O)[C@@H](Cl)c3ccccc3)OC(=O)[C@H](CC(C)C)OC(=O)C(C)(C)CNC2=O)cc1Cl` [Compound 4, Cryptophycin 55 Succinate], the IC50 in data set [1] (setting [8]) was found to be 31 nM.
